Several values for one entry are separate records, joined by “and”; a condition that tells them apart may be missing. Equal values may be shown once.
Biological target: human Kv3.1 channels (hKv3.1) (Homo sapiens, UniProt P48547)
Assay: cell-based
Type: cell-based
Conditions: for Kv3.1 pEC50: HEK-hKv3.1 cells, -15 mV voltage step, normalised to 50 microM reference compound; for Kv3.1 max R %: maximum response relative to reference compound (50 microM)
Source text: The ability of the compounds of the invention to modulate the voltage-gated potassium channel subtypes Kv3.3/Kv3.2/Kv3.1 may be determined using the following assay. Analogous methods may be used to investigate the ability of the compounds of the invention to modulate other channel subtypes.
To assess compound effects on human Kv3.1 channels (hKv3.1):
Human embryonic kidney (HEK)-hKv3.1 cell line is generated by transfecting HEK-293 cells with an expression vector with human Kv3.1 (NM_004976.4). Cells are cultured with MEM supplemented with 10% Heat-Inactivated FBS, 2 mM L-glutamine, 1% Penicillin-Streptomycin, and 0.6 mg/ml of Geneticin (G418). HEK-hKv3.1b cells were amplified in T175 cm2 flask at 37° C. with 5% CO2, using MEM amplification medium, containing the G418 selection antibiotic (0.6 mg/ml). Cells were detached every 3-4 days, using DPBS to wash twice the flask, then TrypLE to dislodge the cells, and re-plated at a density of 2-4×10^6 cells/flask.
The day of the experiment, cells are removed from the incubator and the culture medium removed. Cells are washed with 5 ml of Dulbecco's PBS (DPBS) calcium and magnesium free and detached by the addition of 3 ml Versene (Invitrogen, Italy) followed by a brief incubation at 37° C. for 5 minutes. The flask is tapped to dislodge cells and 10 ml of DPBS containing calcium and magnesium is added to prepare a cell suspension. The cell suspension is then placed into a 15 ml centrifuge tube and centrifuged for 2 min at 1200 rpm. After centrifugation, the supernatant is removed and the cell pellet re-suspended in 4 ml of DPBS containing calcium and magnesium using a 5 ml pipette to break up the pellet. Cell suspension volume is then corrected to give a cell concentration for the assay of approximately 3 million cells per ml.
Experiments are conducted at r.t. using IonWorks Quattro™ planar array electrophysiology technology (Molecular Devices Corp.) with PatchPlate™ PPC. Stimulation protocols and data acquisition are carried out using a microcomputer (Dell Pentium 4). Planar electrode hole resistances (Rp) are determined by applying a 10 mV voltage step across each well. These measurements are performed before cell addition. After cell addition and seal formation, a seal test is performed by applying a voltage step from −80 mV to −70 mV for 160 ms. Following this, amphotericin-B solution is added to the intracellular face of the electrode to achieve intracellular access. Cells are held at −70 mV. Leak subtraction is conducted in all experiments by applying 50 ms hyperpolarizing (10 mV) prepulses to evoke leak currents followed by a 20 ms period at the holding potential before test pulses.
For hKv3.2 and hKv3.1, assays from the holding potential of −70 mV, a first test pulse at −15 mV was applied for 100 ms and after 100 ms at −70 mV a second pulse at +40 mV was applied for 50 ms. Cells were then maintained for 100 ms at −100 mV and another pulse from −70 mV to +40 mV (duration 50 ms) was applied to clamp later the voltage at −40 mV during 200 ms
The intracellular solution contains the following (in mM): K-gluconate 100, KCl 54, MgCl2 3.2, HEPES 5, adjusted to pH 7.3 with KOH. Amphotericin-B solution is prepared as 50 mg/ml stock solution in DMSO and diluted to a final working concentration of 0.1 mg/ml in intracellular solution. The external solution is Dulbecco's Phosphate Buffered Saline (DPBS) and contained the following (in mM): CaCl2 0.90, KCl 2.67, KH2PO4 1.47, MgCl·6H2O 0.493, NaCl 136.9, Na3PO4 8.06, with a pH of 7.4.
Compounds of use in the invention (or reference compounds such as N-cyclohexyl-N-[(7,8-dimethyl-2-oxo-1,2-dihydro-3-quinolinyl)methyl]-N-phenylurea) are dissolved in dimethylsulfoxide (DMSO) at a stock concentration of 10 mM. These solutions are further diluted with DMSO using a Biomek FX (Beckman Coulter) in a 384 compound plate. Each dilution (1 μL) is transferred to another compound plate and external solution containing 0.05% pluronic acid (66 μL) is added. […]

SMILES | Kv3.1 pEC50 | Kv3.1 max R %
CC[C@H]1NC(=O)N(c2ccc(Oc3cccc4c3C3(CC3)CO4)nc2)C1=O [RE13, (5R)-5-ethyl-3-(6-spiro[2H-benzofuran-3,1′-cyclopropane]-4-yloxy-3-pyridyl)imidazolidine-2,4-dione, reference compound] | 6.1 | 149%
CC[C@H]1NC(=O)N(c2ccc(Oc3ccc(C)c4c3C3(CC3)CO4)nc2)C1=O [RE11, reference compound] | 6.1 | 152%
Cc1ccc(Oc2ncc(N3C(=O)NC(C)(C)C3=O)cn2)c2c1OCC21CC1 [RE5, reference compound] | 5.14 | 158%
CC[C@H]1NC(=O)N(c2cnc(Oc3ccc(C)c4c3C3(CC3)CO4)cn2)C1=O [Example 9, (5R)-5-ethyl-3-[5-(7-methylspiro[2H-benzofuran-3,1′-cyclopropane]-4-yl)oxypyrazin-2-yl]imidazolidine-2,4-dione] | 5.88 and 5.90 | 172% and 146%
CC[C@H]1NC(=O)N(c2cnc(Oc3cccc4c3C3(CC3)CO4)cn2)C1=O [Example 10, (5R)-5-ethyl-3-(5-spiro[2H-benzofuran-3,1′-cyclopropane]-4-yloxypyrazin-2-yl)imidazolidine-2,4-dione] | 5.45 and 5.63 | 153% and 147%

Source: patent publication US12358901B2, “KV3 modulators” (priority 2018, dated 2025)
